This is an account of results in US20070048372A1, “Method for treating non-inflammatory osteoarthritic pain” (SRZ Properties, Inc., priority 2005, published 2007).

Structures are written as SMILES. Entries after “also recorded” stand apart in the source; their conditions may differ.

Experiment [1] concerns biceps muscle grip strength after TNF-induced muscle pain. Briefly: Biceps muscle grip strength after TNF-induced muscle pain. The experiment is classed as in vivo, rat (Sprague Dawley). Conditions: for reversal of TNF-induced reduction of grip strength: 6 h after TNF i.m., 30 to 60 minutes after drug. The protocol: (§1) Adult male Sprague Dawley rats with a body weight of 250 g to 300 g were used (supplier: Charles River, Sulzfeld, Germany). Animals were group-housed (3 animals per cage) and maintained in a room with controlled temperature (21-22° C.) and a reversed light-dark cycle (12 h/12 h) with food and water available ad libitum. All experiments were approved by the Bavarian State animal experimentation committee and carried out in accordance with its regulations.
(§2) Recombinant rat tumor necrosis factor alpha (herein referred to as TNF) was obtained from R&D Systems, Minneapolis, Minn., U.S.A. TNF was diluted in 0.9% NaCl and used in a concentration of 1 μg in 50 μl. Injections were performed in short halothane narcosis with a 30 g needle bilaterally into the gastrocnemius or into the biceps brachii muscle. All rats were used to the behavioral tests before injections and baseline values were recorded over three test days.
Grip strength of the forelimbs was tested with a digital grip force meter (DFIS series, Chatillon, Greensboro, NC, U.S.A.). The rat was positioned to grab the grid with the forelimbs and was gently pulled so that the grip strength could be recorded. Means of three trials were calculated. The effect of the TNF treatment was calculated for each animal separately and only animals with a significant TNF effect were included for further analysis.
Rats were injected with TNF into the biceps brachii muscle at 8 am. Six hours later, grip strength of the forelimbs was tested with a digital grip force meter. Test drug was administered, and grip strength was again tested after 30 to 60 minutes.
(§3) The rats, initially 10 per group, were treated with either 3, 10 or 30 mg/kg lacosamide, 2 mg/kg metamizol, 30 or 100 mg/kg pregabalin, 100 mg/kg gabapentin, or the NaCl vehicle, i.p. (intraperitoneally). Volume of i.p. injections was 0.5 ml. A pilot study was performed to confirm that i.m. (intramuscular) injection of 1 μg TNF into the gastrocnemius muscle was sufficient to induce pressure hyperalgesia.
(§4) Data are shown in graphs displaying means and standard errors of the means (SEM). Pre- and post-treatment data were compared using ANOVA (analysis of variance) and a Tukey post hoc test. Means of treatment groups were compared using a one-way ANOVA and Dunnett's post hoc test. Maximal possible effects (MPE) were calculated for all types of treatment.

Experiment [2] deals with muscle pressure hyperalgesia induced by TNF. Briefly: TNF-induced muscle pressure hyperalgesia (Randall-Selitto, withdrawal threshold to muscle pressure). The experiment is classed as in vivo, rat (Sprague Dawley). As to conditions: for reversal of muscular mechanical hyperalgesia (withdrawal threshold to muscle pressure): 18 h after TNF i.m., 30 to 60 minutes after drug; for full reversal of the muscle hyperalgesia: doses tested: pregabalin 30 and 100 mg/kg, gabapentin 100 mg/kg i.p. Here is the method: as §1, §2
Mechanical withdrawal thresholds to muscle pressure were measured with an analgesimeter (Ugo Basile, Comerio, Italy). The rat was allowed to crawl into a sock which helps the rat to relax. The hind limbs were positioned such that an increasing pressure could be applied onto the gastrocnemius muscle (maximum 250 g). The pressure needed to elicit withdrawal was recorded. Means of 3 trials for each hind limb were calculated (interstimulus interval of >30 sec). Only animals with a significant TNF effect were included for further analysis.
Rats were injected with TNF into the gastrocnemius muscle at 2 pm. Eighteen hours later, rats were tested for pressure hyperalgesia pre- and post-administration of the test drug. Rats were tested for pressure hyperalgesia 30 to 60 minutes after drug administration.
as §3, §4

Experiment [3] relates to rat formalin paw test (late phase). The experiment is described as follows: Rat formalin paw test (late phase): number of flinches and licking time. The experiment is classed as in vivo, rat (Rj: Wistar (Han)). Here is the method: Rats were given an intraplantar injection of 5% formalin (50 μl) into the posterior left paw. This treatment induces a recognizable flinching and licking response of the affected paw in control animals. The number of flinches was counted for 15 minutes, beginning 20 minutes after injection of formalin. The time spent licking the affected paw was also recorded.
Male Rj: Wistar (Han) rats, 10 per group, weighing 100-130 g at the beginning of the experiments were studied per group. The test was performed blind.
Lacosamide (20 mg/kg), gabapentin (50 and 100 mg/kg), combinations of lacosamide (20 mg/kg) with gabapentin (50 and 100 mg/kg), and vehicle were administered i.p. 10 minutes before injection of formalin.
Lacosamide (10 and 20 mg/kg), morphine (2 and 4 mg/kg), combinations of lacosamide (10 and 20 mg/kg) with morphine (2 and 4 mg/kg), and vehicle were administered i.p. 10 minutes before injection of formalin.
Lacosamide (10 mg/kg), duloxetine (8 mg/kg), a combination of lacosamide (10 mg/kg) with duloxetine (8 mg/kg), and vehicle were administered i.p. 10 minutes before injection of formalin.
Lacosamide (10 and 20 mg/kg), memantine (4 and 8 mg/kg), combinations of lacosamide (10 and 20 mg/kg) with memantine (4 and 8 mg/kg), and vehicle were administered i.p. 10 minutes before injection of formalin.
Lacosamide (10 and 20 mg/kg), naproxen (8 and 16 mg/kg), combinations of lacosamide (10 and 20 mg/kg) with […] (8 and 16 mg/kg), and vehicle were administered i.p. 10 minutes before injection of formalin. Morphine (8 mg/kg) was included as a comparative treatment.

Experiment [4] has as its system monosodium iodoacetate-induced tactile allodynia. Briefly: Monosodium iodoacetate-induced tactile allodynia (von Frey filaments). The experiment is classed as in vivo, rat (Wistar). Conditions: 30 mg/kg s.c., 60 minutes before test.
Experiment [5] deals with monosodium iodoacetate-induced mechanical hyperalgesia. The experiment is described as follows: Monosodium iodoacetate-induced mechanical hyperalgesia (Randall-Selitto paw pressure). As to conditions: 30 mg/kg s.c. The experiment is classed as in vivo, rat (Wistar).
Where [6] appears, read: Example 3, 100 mg/kg i.p. alone.

Take `Cc1c(N(C)CS(=O)(=O)[O-])c(=O)n(-c2ccccc2)n1C.[Na+]` [metamizol]: in experiment [1] (2 mg/kg i.p.), the “MPE (maximal possible effect) on biceps muscle grip strength, compared with vehicle” value is “significantly different from vehicle” and the “reversal of TNF-induced reduction of grip strength” value was “significant reversal”. In addition, in experiment [2] (2 mg/kg i.p.), the “MPE (maximal possible effect) on muscle pressure hyperalgesia, compared with vehicle” value is “significantly different from vehicle” and the “reversal of muscular mechanical hyperalgesia (withdrawal threshold to muscle pressure)” value is given as “complete reversal”.
For the compound `CNCC[C@H](Oc1cccc2ccccc12)c1cccs1` [Duloxetine], in experiment [3] (Example 5, 8 mg/kg i.p. alone), the “Licking time % change (a) compared with vehicle control” value (“Licking time % change” for short) was −26% (a), the “Licking time (seconds) mean ± SEM” value was 195.5 ± 45.0 NS (a) seconds, the “No. of flinches % change (a) compared with vehicle control” value (from here on “No. of flinches % change”) is recorded as −1% (a) and the “No. of flinches mean ± SEM” value is reported as 149.6 ± 27.3 NS (a). The “effects on the number of flinches and the time spent licking” value in experiment [3] (Example 5, 8 mg/kg i.p. alone) is on record as “had no clear effects”.
Take `O=C(O)Cc1ccccc1Nc1c(Cl)cccc1Cl` [diclofenac]: the “tactile allodynia of iodoacetate-treated rats (von Frey)” value in experiment [4] (day 3), in experiment [4] (day 7) and in experiment [4] (day 14) was “had no effect” in each case. Moreover, the “paw pressure withdrawal threshold compared to iodoacetate/vehicle treated animals (mechanical hyperalgesia)” value in experiment [5] (day 3) is “increase in paw pressure withdrawal threshold”. Besides, the “mechanical hyperalgesia (paw pressure withdrawal threshold)” value in experiment [5] (day 7) is on record as “reduced mechanical hyperalgesia”.
Regarding `NCC1(CC(=O)O)CCCCC1` [Gabapentin], in experiment [1] (100 mg/kg i.p.), the “MPE (maximal possible effect) on biceps muscle grip strength, compared with vehicle” value is “significantly different from vehicle” and the “reversal of TNF-induced reduction of grip strength” value was “significant reversal; also recorded: improved grip strength”. In addition, in experiment [3] (Example 3, 50 mg/kg i.p. alone), the “Licking time % change” value was −28% (a), the “Licking time (seconds) mean ± SEM” value is listed as 161.0 ± 27.3 NS (a) seconds, the “No. of flinches % change” value is listed as −24% (a) and the “No. of flinches mean ± SEM” value was 97.4 ± 23.8 NS (a). Further, in experiment [3] (Example 3, 50 mg/kg i.p. alone), the “decrease of the number of flinches as compared with vehicle controls” value is on record as 24% and the “decrease of the time spent licking as compared with vehicle controls” value was determined as 28%. Moreover, in experiment [3] (setting [6]), the “Licking time % change” value is recorded as −60% (a), the “Licking time (seconds) mean ± SEM” value is 90.0 ± 22.5 (a) seconds, the “No. of flinches % change” value is −31% (a) and the “No. of flinches mean ± SEM” value is 88.1 ± 19.4 NS (a). Further, in experiment [3] (setting [6]), the “decrease of the number of flinches as compared with vehicle controls” value is 31% and the “decrease of the time spent licking as compared with vehicle controls” value was determined as 60%. Further, in experiment [2] (100 mg/kg i.p.), the “MPE (maximal possible effect) on muscle pressure hyperalgesia, compared with vehicle” value was “significantly different from vehicle” and the “reversal of muscular mechanical hyperalgesia (withdrawal threshold to muscle pressure)” value is “significant reversal”. Also, the “full reversal of the muscle hyperalgesia” value in experiment [2] is “Neither pregabalin nor gabapentin led to a full reversal”.
For `CC12CC3CC(C)(C1)CC(N)(C3)C2` [Memantine], in experiment [3] (Example 6, 4 mg/kg i.p. alone), the “Licking time % change” value is “+25% (a)”, the “Licking time (seconds) mean ± SEM” value is recorded as 219.9 ± 21.8 NS (a) seconds, the “No. of flinches % change” value is −3% (a) and the “No. of flinches mean ± SEM” value was 161.4 ± 26.3 NS (a). For the same compound, the “increase of the time spent licking as compared with vehicle controls” value in experiment [3] (Example 6, 4 mg/kg i.p. alone) is 25%. In experiment [3] (Example 6, 8 mg/kg i.p. alone), the “Licking time % change” value is on record as “+35% (a)”, the “Licking time (seconds) mean ± SEM” value is reported as 237.3 ± 18.9 (a) seconds, the “No. of flinches % change” value is listed as −20% (a) and the “No. of flinches mean ± SEM” value is reported as 132.3 ± 24.6 NS (a). Further, in experiment [3] (Example 6, 8 mg/kg i.p. alone), the “increase of the time spent licking as compared with vehicle controls” value was 35%. Further, the “effect on the number of flinches as compared with vehicle controls” value in experiment [3] (Example 6, 4 and 8 mg/kg i.p. alone) is reported as “did not clearly affect”.
`CC(C)C[C@H](CN)CC(=O)O` [pregabalin]: in experiment [1] (100 mg/kg i.p.), the “MPE (maximal possible effect) on biceps muscle grip strength, compared with vehicle” value was “significantly different from vehicle” and the “reversal of TNF-induced reduction of grip strength” value is on record as “significant reversal; also recorded: improved grip strength”. Moreover, in experiment [2] (30 mg/kg i.p.), the “MPE (maximal possible effect) on muscle pressure hyperalgesia, compared with vehicle” value is given as “significantly different from vehicle” and the “reversal of muscular mechanical hyperalgesia (withdrawal threshold to muscle pressure)” value was “significant reversal”. In experiment [2] (100 mg/kg i.p.), the “MPE (maximal possible effect) on muscle pressure hyperalgesia, compared with vehicle” value is recorded as “significantly different from vehicle” and the “reversal of muscular mechanical hyperalgesia (withdrawal threshold to muscle pressure)” value was “significant reversal”. The “full reversal of the muscle hyperalgesia” value in experiment [2] is on record as “Neither pregabalin nor gabapentin led to a full reversal”.
Take `COc1ccc2cc([C@H](C)C(=O)O)ccc2c1` [Naproxen]: in experiment [3] (Example 7, 8 mg/kg i.p. alone), the “Licking time % change” value is listed as “+16% (a)”, the “Licking time (seconds) mean ± SEM” value is on record as 222.1 ± 21.1 NS (a) seconds, the “No. of flinches % change” value is “+30% (a)” and the “No. of flinches mean ± SEM” value is reported as 148.0 ± 35.5 NS (a). In addition, in experiment [3] (Example 7, 16 mg/kg i.p. alone), the “Licking time % change” value is −1% (a), the “Licking time (seconds) mean ± SEM” value is 190.1 ± 25.4 NS (a) seconds, the “No. of flinches % change” value is on record as “+2% (a)” and the “No. of flinches mean ± SEM” value is recorded as 116.6 ± 20.7 NS (a). Also, the “effect on the number of flinches or the time spent licking as compared with vehicle controls” value in experiment [3] (Example 7, 8 and 16 mg/kg i.p. alone) was “did not clearly affect”.
